Laboratory results: article PMC7920804 (Bioorganic & Medicinal Chemistry Letters, 2021)

Columns and labels:
[1] = test system: SARS-CoV-2
[2] = test system: SARS-CoV-2; test: microbe, parasite or virus in culture; settings: Severe acute respiratory syndrome coronavirus 2, Vero, read-out: SARS-CoV-2 IC50
[3] = molecular target: T1, CYP1A2 (Homo sapiens, UniProt P05177); test: CYP inhibition assay, 1A2; assay type: in vitro ADME
T1 sequence (P05177 1-516): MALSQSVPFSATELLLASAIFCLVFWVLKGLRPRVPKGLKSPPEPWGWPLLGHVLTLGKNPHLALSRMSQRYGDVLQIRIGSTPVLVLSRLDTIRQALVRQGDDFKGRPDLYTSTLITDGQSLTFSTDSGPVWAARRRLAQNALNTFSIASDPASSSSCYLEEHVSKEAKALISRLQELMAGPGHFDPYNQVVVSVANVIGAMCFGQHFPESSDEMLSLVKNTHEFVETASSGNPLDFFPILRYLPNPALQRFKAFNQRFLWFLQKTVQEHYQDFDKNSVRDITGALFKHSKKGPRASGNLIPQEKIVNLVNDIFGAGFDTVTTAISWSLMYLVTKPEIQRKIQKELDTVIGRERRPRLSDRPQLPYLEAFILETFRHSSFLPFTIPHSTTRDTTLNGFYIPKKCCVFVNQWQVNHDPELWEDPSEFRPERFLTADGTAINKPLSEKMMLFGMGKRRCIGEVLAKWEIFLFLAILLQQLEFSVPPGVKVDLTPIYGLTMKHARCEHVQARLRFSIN

[4] = molecular target: CYP3A4 (Homo sapiens, UniProt P08684); test: CYP inhibition assay, 3A4; assay type: in vitro ADME
Sequence of CYP3A4 (P08684 whole entry): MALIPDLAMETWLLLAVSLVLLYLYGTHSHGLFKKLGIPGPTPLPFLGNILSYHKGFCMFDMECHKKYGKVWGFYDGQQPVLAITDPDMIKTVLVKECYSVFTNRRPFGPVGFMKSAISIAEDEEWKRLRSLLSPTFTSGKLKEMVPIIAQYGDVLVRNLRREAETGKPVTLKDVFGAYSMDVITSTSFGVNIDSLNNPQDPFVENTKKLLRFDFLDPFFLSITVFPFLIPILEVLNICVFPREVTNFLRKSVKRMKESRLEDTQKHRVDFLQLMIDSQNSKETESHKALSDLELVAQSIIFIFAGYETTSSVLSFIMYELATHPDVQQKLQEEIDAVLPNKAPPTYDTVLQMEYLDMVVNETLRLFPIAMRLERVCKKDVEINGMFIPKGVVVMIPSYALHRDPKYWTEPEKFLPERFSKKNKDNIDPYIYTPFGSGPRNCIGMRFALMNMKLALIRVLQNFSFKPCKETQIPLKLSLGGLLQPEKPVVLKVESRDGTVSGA

[5] = in vivo; settings: rat, po, 10 mg/kg

SMILES	SARS-CoV-2 IC50 [1]	IC50 [2]	other results
O=c1[nH]c(Nc2ccc(F)cc2)nc2cc(Cl)ccc12 [Compound 9c]	no inhibitory effect		
O=c1[nH]c(Nc2ccc(F)cc2F)nc2cc(Cl)ccc12 [Compound 9d]	no activity		
O=c1[nH]c(Nc2cc(Cl)cc(Cl)c2)nc2cc(Cl)ccc12 [Compound 9g, 7-chloro-2-((3,5-dichlorophenyl)amino)quinazolin-4(3H)-one]		< 0.25 µM	
Cc1cc(C)c2nc(Nc3cc(F)cc(F)c3)[nH]c(=O)c2c1 [Compound 10h]	no inhibitory effects		
COc1cccc(Nc2nc3cc(Cl)ccc3c(=O)[nH]2)c1 [Compound 9h]		> 11 µM	
Nc1ccc2c(=O)[nH]c(Nc3cc(Cl)cc(Cl)c3)nc2c1 [Compound 11c]	no inhibitory effects		
Cc1cc(C)c2nc(Nc3cc(Cl)cc(Cl)c3)[nH]c(=O)c2c1 [Compound 11h, 2-((3,5-Dichlorophenyl)amino)-6,8-dimethylquinazolin-4(3H)-one]	no inhibitory effects		
O=c1[nH]c(Nc2cc(Cl)cc(Cl)c2)nc2cc(O)ccc12 [Compound 11g]	no inhibitory effects		
O=c1[nH]c(Nc2cc(F)cc(F)c2)nc2cc(O)ccc12 [Compound 10g]	no inhibitory effects		
COc1cccc2nc(Nc3cc(F)cc(F)c3)[nH]c(=O)c12 [Compound 10d]	no inhibitory effects		
Nc1ccc2c(=O)[nH]c(Nc3cc(F)cc(F)c3)nc2c1 [Compound 10c]	no inhibitory effects		
O=c1[nH]c(N2CCCCC2)nc2cc(Cl)ccc12 [Compound 9q]		> 14 µM	
CC(C)Nc1nc2cc(Cl)ccc2c(=O)[nH]1 [Compound 9o]		> 14 µM	
COc1cccc2nc(Nc3cc(Cl)cc(Cl)c3)[nH]c(=O)c12 [Compound 11d]	no inhibitory effects		
O=c1[nH]c(Nc2cc(Cl)cc(Cl)c2)nc2cccc(O)c12 [Compound 11e, 2-((3,5-dichlorophenyl)amino)-5-hydroxyquinazolin-4(3H)-one]		< 0.25 µM	inhibition at 10 µM [3]: > 65%; inhibition at 10 µM [4]: > 65%; Cmax [5]: 60 ng/mL
O=c1[nH]c(NCC2CCCCC2)nc2cc(Cl)ccc12 [Compound 9n]		> 14 µM	
CCCCNc1nc2cc(Cl)ccc2c(=O)[nH]1 [Compound 9p]		> 14 µM	
O=c1[nH]c(Nc2ccccc2F)nc2cc(Cl)ccc12 [Compound 9a]	no inhibitory effect		
O=c1[nH]c(Nc2cc(Cl)cc(Cl)c2)nc2cc(N3CCOCC3)ccc12 [Compound 11k]	no anti-SARS-CoV-2 activity		
